Measurements as given in patent US10766903B2 (ALMAC DISCOVERY LIMITED, priority 2016, dated 2020).
In brackets after ≈: the same amount, converted by molar mass. Like-named read-outs stand apart in the source and are kept apart here.

Experiments:
HCT116 cells = assay: p53, p21 and MDM2 protein levels by western blotting in HCT116; assay type: cell-based; conditions: HCT116, 24 h treatment
SJSA-1 cells = assay: p53, p21 and MDM2 protein levels by western blotting in SJSA-1; assay type: cell-based; conditions: SJSA-1, 24 h treatment
Method: This osteosarcoma cell line with a known functional p53 pathway was used as a second model for these experiments. Cells were treated as described above and samples analysed by western blotting as indicated. Similar observations were made with stabilisation of p53, p21 induction and MDM2 decreased levels in a concentration dependent manner.
p53, p21 and MDM2 Protein Levels

USP7 = USP7 (Homo sapiens (Human), UniProt Q93009); assay: USP7 fluorescence polarisation (FP) biochemical assay, ubiquitin-Lys-TAMRA substrate; conditions: read-out: USP7 IC50
Summary of the method: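 Full-length His6-USP7 (2.5 nM) incubated ± inhibitor (8-point dilutions, 200 to 0.1 μM before addition) in 50 mM HEPES pH 7.2, 150 mM NaCl, 0.5 mM EDTA, 5 mM DTT, 0.05% BSA, 0.05% CHAPS. Ubiquitin-Lys-TAMRA cleavage followed by FP (ex 530/em 575 nm) every 15 min for 1.5 h; normalised to no-compound control.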

Kinetic solubility assay = assay type: physicochemical; conditions: PBS buffer pH 7.4 with 2% DMSO, aqueous buffer, kinetic from dmso stock, PBS buffer pH 7.4, 2% DMSO, RT, read-out: KSol
Method: Samples were prepared by adding 4 μL of the 10 mM compound DMSO stock solutions into 196 μL of PBS buffer pH 7.4 in the 96 well filter plates, yielding a compound concentration of 200 μM and 2% DMSO. The PBS buffer pH7.4 was prepared by Genentech media lab. Filter plates were sealed with aluminum sealing film and shaken at RT at 1000 rpm. After 24 h, the solutions were filtered into a clean 96 well plates utilizing a vacuum manifold. After filtration, some precipitate was often observed at the bottom of the filtration plate wells. Most of the precipitates appeared to be crystalline under a polarizing light microscope. […]
Samples were detected and analyzed using UV 254 nm and CLND. UV 254 nm is used primarily to confirm the sample purity but in rare cases, is also used to quantify the concentration of compounds with no nitrogens, where additional work was done to create a compound specific calibration curve. […] Sample quantification was accomplished by CLND peak intensity, the calibration curve, and the number of nitrogen contained in the compound. One calibration curve of caffeine was used for solubility quantitative determination. […] The number of nitrogens in a compound used for this quantification needs to be corrected for the actual configuration of the nitrogen in the compound. […]

LNCaP cells = assay: LNCaP proliferation assay (CellTiter-Glo); assay type: cell-based; conditions: Homo sapiens, Table 1, cell viability after 168 h
Method: LNCaP cells from ATCC, were seeded in 96 well plate format (typically 2500 cells/well) in their growth media (RPMI, Life Technologies #52400-025+10% Fetal Calf Serum, Life Technologies #10500-064) and treated after 24 h with increasing concentration of compound from 0 to 30 μM. Cell viability was assessed after 168 h by CellTiter-Glo® as recommended by the manufacturer's instructions (Promega). Analysis and EC50 values were derived using GraphPadPrism.

[1] = Table 4, biochemical assay, average of at least duplicate experiments
[2] = Table 1, R9a = H versus R9a = Cl

Sequence of USP7 (Q93009 whole entry): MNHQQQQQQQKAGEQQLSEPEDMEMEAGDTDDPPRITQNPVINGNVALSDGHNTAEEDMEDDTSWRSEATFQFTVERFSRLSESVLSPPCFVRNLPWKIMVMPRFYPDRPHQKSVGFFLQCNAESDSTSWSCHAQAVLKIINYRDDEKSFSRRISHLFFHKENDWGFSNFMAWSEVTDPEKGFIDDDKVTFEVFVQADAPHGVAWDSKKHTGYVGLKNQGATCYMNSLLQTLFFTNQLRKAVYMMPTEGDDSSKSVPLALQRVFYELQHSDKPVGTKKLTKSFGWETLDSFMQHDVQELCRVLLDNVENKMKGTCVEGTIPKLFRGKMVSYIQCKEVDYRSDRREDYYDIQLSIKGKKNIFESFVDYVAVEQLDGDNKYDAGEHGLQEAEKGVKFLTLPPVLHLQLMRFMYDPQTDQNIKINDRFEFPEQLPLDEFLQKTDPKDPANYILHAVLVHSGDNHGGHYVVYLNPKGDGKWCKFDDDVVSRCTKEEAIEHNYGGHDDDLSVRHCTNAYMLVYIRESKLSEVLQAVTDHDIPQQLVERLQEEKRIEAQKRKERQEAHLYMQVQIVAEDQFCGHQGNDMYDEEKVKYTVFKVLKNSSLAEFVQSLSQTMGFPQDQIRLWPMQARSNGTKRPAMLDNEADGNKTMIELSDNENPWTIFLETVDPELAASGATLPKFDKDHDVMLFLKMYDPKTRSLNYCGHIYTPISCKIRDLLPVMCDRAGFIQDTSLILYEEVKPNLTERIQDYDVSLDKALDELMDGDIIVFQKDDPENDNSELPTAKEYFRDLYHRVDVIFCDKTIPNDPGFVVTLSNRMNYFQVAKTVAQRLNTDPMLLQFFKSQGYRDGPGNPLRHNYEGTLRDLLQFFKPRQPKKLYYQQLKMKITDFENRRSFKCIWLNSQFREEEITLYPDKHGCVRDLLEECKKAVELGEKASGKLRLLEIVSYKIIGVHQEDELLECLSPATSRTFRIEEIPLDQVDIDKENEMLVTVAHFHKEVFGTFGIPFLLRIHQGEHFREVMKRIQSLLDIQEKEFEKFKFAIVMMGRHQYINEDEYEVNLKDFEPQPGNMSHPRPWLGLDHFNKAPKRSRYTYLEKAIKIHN

| SMILES | IC50 (USP7; [1]) [µM] | other results |
| --- | --- | --- |
| C[C@H](CC(=O)N1CCC(O)(Cn2cnc3c(-c4cccc(N)c4)n(C)nc3c2=O)CC1)c1ccccc1 [Example 29, (R)-3-(3-Aminophenyl)-6-((4-hydroxy-1-(3-phenylbutanoyl)piperidin-4-yl)methyl)-2-methyl-2H-pyrazolo[4,3-d]pyrimidin-7(6H)-one] |  | p53, p21 and MDM2 protein levels (HCT116 cells): dose-dependent p53 stabilisation, p21 induction and concomitant decrease in MDM2 levels; p53, p21 and MDM2 protein levels (SJSA-1 cells): dose-dependent p53 stabilisation, p21 induction and concomitant decrease in MDM2 levels |
| CC1(C(=O)N2CCC(O)(Cn3cnc4c(cc(Cl)n4-c4ccccc4)c3=O)CC2)CC1 [Example 200, 6-Chloro-3-((4-hydroxy-1-(1-methylcyclopropanecarbonyl)piperidin-4-yl)methyl)-7-phenyl-3H-pyrrolo[2,3-d]pyrimidin-4(7H)-one] | 0.25 to 0.999 | solubility kinetic at 24 h (Kinetic solubility assay): 173 µM (≈ 76.3 µg/mL) |
| CC1(C(=O)N2CCC(O)(Cn3cnc4c(cc(Cl)n4-c4ccc5c(c4)OCO5)c3=O)CC2)CC1 [Example 202, 7-(Benzo[d][1,3]dioxol-5-yl)-6-chloro-3-((4-hydroxy-1-(1-methylcyclopropanecarbonyl)piperidin-4-yl)methyl)-3H-pyrrolo[2,3-d]pyrimidin-4(7H)-one] | 0.25 to 0.999 | IC50 (USP7; [2]): 0.25 µM; EC50 (LNCaP cells): 0.051 µM |
| CC1(C(=O)N2CCC(O)(Cn3cnc4c(cc(Cl)n4-c4ccc(Cl)cc4)c3=O)CC2)CC1 [Example 203, 6-Chloro-7-(4-chlorophenyl)-3-((4-hydroxy-1-(1-methylcyclopropanecarbonyl)piperidin-4-yl)methyl)-3H-pyrrolo[2,3-d]pyrimidin-4(7H)-one] | < 0.25 | IC50 (USP7; [2]): 0.22 µM; EC50 (LNCaP cells): 0.022 µM |
| Cn1cc(-c2cccc(-n3c(Cl)cc4c(=O)n(CC5(O)CCN(C(=O)C6(C)CC6)CC5)cnc43)c2)cn1 [Example 212, 6-Chloro-3-((4-hydroxy-1-(1-methylcyclopropanecarbonyl)piperidin-4-yl)methyl)-7-(3-(1-methyl-1H-pyrazol-4-yl)phenyl)-3H-pyrrolo[2,3-d]pyrimidin-4(7H)-one] | < 0.25 | IC50 (USP7; [2]): 0.14 µM; EC50 (LNCaP cells): 0.055 µM |
| Cn1nc2c(=O)n(CC3(O)CCN(C(=O)c4cnc(C5CC5)o4)CC3)cnc2c1-c1ccc(CN)cc1 [Example 238, 3-(4-(Aminomethyl)phenyl)-6-((1-(2-cyclopropyloxazole-5-carbonyl)-4-hydroxypiperidin-4-yl)methyl)-2-methyl-2,6-dihydro-7H-pyrazolo[4,3-d]pyrimidin-7-one] | 0.25 to 0.999 |  |
| COc1ccc(-n2c(Cl)cc3c(=O)n(CC4(O)CCN(C(=O)C5(C)CC5)CC4)cnc32)cc1OC [Example 239, 6-Chloro-7-(3,4-dimethoxyphenyl)-3-((4-hydroxy-1-(1-methylcyclopropane-1-carbonyl)piperidin-4-yl)methyl)-3,7-dihydro-4H-pyrrolo[2,3-d]pyrimidin-4-one] | < 0.25 |  |
| COc1ccc(-n2c(Cl)cc3c(=O)n(CC4(O)CCN(C(=O)c5cnc(C6CC6)o5)CC4)cnc32)cc1OC [Example 240, 6-Chloro-3-((1-(2-cyclopropyloxazole-5-carbonyl)-4-hydroxypiperidin-4-yl)methyl)-7-(3,4-dimethoxyphenyl)-3,7-dihydro-4H-pyrrolo[2,3-d]pyrimidin-4-one] | < 0.25 |  |
| CC1(C(=O)N2CCC(O)(Cn3cnc4c(cc(Cl)n4-c4ccc(CN)cc4)c3=O)CC2)CC1 [Example 241, 7-(4-(Aminomethyl)phenyl)-6-chloro-3-((4-hydroxy-1-(1-methylcyclopropane-1-carbonyl)piperidin-4-yl)methyl)-3,7-dihydro-4H-pyrrolo[2,3-d]pyrimidin-4-one] | < 0.25 |  |
| NCc1ccc(-n2c(Cl)cc3c(=O)n(CC4(O)CCN(C(=O)c5cnc(C6CC6)o5)CC4)cnc32)cc1 [Example 242, 7-(4-(Aminomethyl)phenyl)-6-chloro-3-((1-(2-cyclopropyloxazole-5-carbonyl)-4-hydroxypiperidin-4-yl)methyl)-3,7-dihydro-4H-pyrrolo[2,3-d]pyrimidin-4-one] | < 0.25 |  |
| C[C@H](CC(=O)N1CCC(O)(Cn2cnc3c(-c4ccc(C(=O)O)cc4)n(C)nc3c2=O)CC1)c1ccccc1 [Example 243, (R)-4-(6-((4-Hydroxy-1-(3-phenylbutanoyl)piperidin-4-yl)methyl)-2-methyl-7-oxo-6,7-dihydro-2H-pyrazolo[4,3-d]pyrimidin-3-yl)benzoic Acid] | 1 to 200 |  |
| C[C@H](CC(=O)N1CCC(O)(Cn2cnc3c(-c4cccc(C(=O)O)c4)n(C)nc3c2=O)CC1)c1ccccc1 [Example 244, (R)-3-(6-((4-Hydroxy-1-(3-phenylbutanoyl)piperidin-4-yl)methyl)-2-methyl-7-oxo-6,7-dihydro-2H-pyrazolo[4,3-d]pyrimidin-3-yl)benzoic Acid] | 1 to 200 |  |
| Cn1nc2c(=O)n(CC3(O)CCN(C(=O)C4(C)CC4)CC3)cnc2c1-c1ccc(C(=O)O)cc1 [Example 245, 4-(6-((4-Hydroxy-1-(1-methylcyclopropane-1-carbonyl)piperidin-4-yl)methyl)-2-methyl-7-oxo-6,7-dihydro-2H-pyrazolo[4,3-d]pyrimidin-3-yl)benzoic Acid] | 1 to 200 |  |
